# Experiments:
# Test in all cases: HIV-1 RT Assay
# [1] = target: T1, Gag-Pol polyprotein [600-1027,Y780C]/[600-1155,Y780C] (Human immunodeficiency virus 1, UniProt P03366, Y780C)
# T1 construct: 600-1027; 600-1155
# [2] = target: T2, Gag-Pol polyprotein [600-1027,R876K]/[600-1155] (Human immunodeficiency virus 1, UniProt P03366, R876K)
# T2 construct: 600-1027; 600-1155
# [3] = target: T3, Gag-Pol polyprotein [600-1027,Y787L]/[600-1155,Y787L] (Human immunodeficiency virus 1, UniProt P03366, Y787L)
# T3 construct: 600-1027; 600-1155
Compound,IC50 [3],other results
"CCN1c2ncc(CCc3ccccc3C)cc2C(=O)N(C)c2ccc(Cl)nc21 [5-chloro-2-ethyl-9-methyl-13-[2-(2-methylphenyl)ethyl]-2,4,9,15-tetraazatricyclo[9.4.0.0^{3,8}]pentadeca-1(15),3(8),4,6,11,13-hexaen-10-one]",> 1000 nM,IC50 [1]: > 1000 nM; IC50 [2]: > 1000 nM
"CCN1c2ncc(CCc3ccc(NS(C)(=O)=O)cc3)cc2C(=O)N(C)c2ccc(Cl)nc21 [N-[4-(2-{5-chloro-2-ethyl-9-methyl-10-oxo-2,4,9,15-tetraazatricyclo[9.4.0.0^{3,8}]pentadeca-1(15),3(8),4,6,11,13-hexaen-13-yl}ethyl)phenyl]methanesulfonamide]",> 1000 nM,–
"CCN1c2ncc(C)cc2C(=O)N(C)c2cccnc21 [2-ethyl-9,13-dimethyl-2,4,9,15-tetraazatricyclo[9.4.0.0^{3,8}]pentadeca-1(11),3,5,7,12,14-hexaen-10-one]",–,"IC50 ([1]; pH 7.8, 22 °C): > 1000 nM"
"CCN1c2ncc(CCc3ccc(C)cc3)cc2C(=O)N(C)c2cccnc21 [2-ethyl-9-methyl-13-[2-(4-methylphenyl)ethyl]-2,4,9,15-tetraazatricyclo[9.4.0.0^{3,8}]pentadeca-1(11),3,5,7,12,14-hexaen-10-one]",> 1000 nM,IC50 [2]: 100 nM
"CCN1c2ncc(CCc3ccnc(C(=O)O)c3)cc2C(=O)N(C)c2ccc(Cl)nc21 [2-Chloro-5,11-dihydro-11-ethyl-5-methyl-8-[2-(2-carboxypyrid-4-yl)ethyl]-6H-dipyrido[3,2-b:2 ,3-e][1,4]diazepin-6-one]",> 1000 nM,–
"CCN1c2ncc(CCc3ccnc(CO)c3)cc2C(=O)N(C)c2ccc(Cl)nc21 [5-chloro-2-ethyl-13-{2-[2-(hydroxymethyl)pyridin-4-yl]ethyl}-9-methyl-2,4,9,15-tetraazatricyclo[9.4.0.0^{3,8}]pentadeca-1(15),3(8),4,6,11,13-hexaen-10-one]",> 1000 nM,–
"CCN1c2ncc(CCc3ccccc3)cc2C(=O)N(C)c2ccc(-c3ccc[nH]3)nc21 [2-ethyl-9-methyl-13-(2-phenylethyl)-5-(1H-pyrrol-2-yl)-2,4,9,15-tetraazatricyclo[9.4.0.0^{3,8}]pentadeca-1(15),3(8),4,6,11,13-hexaen-10-one]",1280 nM,IC50 [1]: 520 nM; IC50 [2]: 590 nM
"CCN1c2ncc(-c3cccc(OC)c3)cc2C(=O)N(C)c2cccnc21 [2-ethyl-13-(3-methoxyphenyl)-9-methyl-2,4,9,15-tetraazatricyclo[9.4.0.0^{3,8}]pentadeca-1(11),3,5,7,12,14-hexaen-10-one]",–,"IC50 ([1]; pH 7.8, 22 °C): > 1000 nM; IC50 ([2]; pH 7.8, 22 °C): > 1000 nM"
"CCN1c2ncc(CCc3cccnc3)cc2C(=O)N(C)c2cccnc21 [2-ethyl-9-methyl-13-[2-(pyridin-3-yl)ethyl]-2,4,9,15-tetraazatricyclo[9.4.0.0^{3,8}]pentadeca-1(11),3,5,7,12,14-hexaen-10-one]",> 1000 nM,IC50 [2]: 30 nM
"CCN1c2ncc(CCc3cccc(NS(C)(=O)=O)c3)cc2C(=O)N(C)c2ccc(Cl)nc21 [N-[3-(2-{5-chloro-2-ethyl-9-methyl-10-oxo-2,4,9,15-tetraazatricyclo[9.4.0.0^{3,8}]pentadeca-1(15),3(8),4,6,11,13-hexaen-13-yl}ethyl)phenyl]methanesulfonamide]",> 1000 nM,–
"CCN1c2ncc(CCc3cncnc3)cc2C(=O)N(C)c2cccnc21 [2-ethyl-9-methyl-13-[2-(pyrimidin-5-yl)ethyl]-2,4,9,15-tetraazatricyclo[9.4.0.0^{3,8}]pentadeca-1(11),3,5,7,12,14-hexaen-10-one]",> 1000 nM,IC50 [1]: > 1000 nM
"CCN1c2ncc(CCc3ccncc3)cc2C(=O)N(C)c2ccc(C#N)nc21 [2,8-Disubstituted Dipyridodiazepinone 38]",> 1000 nM,–
"CCN1c2ncc(CCc3ccccc3C)cc2C(=O)N(C)c2cccnc21 [2-ethyl-9-methyl-13-[2-(2-methylphenyl)ethyl]-2,4,9,15-tetraazatricyclo[9.4.0.0^{3,8}]pentadeca-1(11),3,5,7,12,14-hexaen-10-one]",> 1000 nM,–
"CCN1c2ncc(CCc3ccc(N)cc3)cc2C(=O)N(C)c2cccnc21 [13-[2-(4-aminophenyl)ethyl]-2-ethyl-9-methyl-2,4,9,15-tetraazatricyclo[9.4.0.0^{3,8}]pentadeca-1(15),3(8),4,6,11,13-hexaen-10-one]",> 1000 nM,–
"CCN1c2ncc(/C=C/c3ccncc3)cc2C(=O)N(C)c2cccnc21 [5,11-Dihydro-11-ethyl-5-methyl-8-[trans-2-(4-pyridyl)ethen-1-yl]-6H-dipyrido[3,2-b:2 ,3-e][1,4]diazepin-6-one]",–,IC50 [1]: > 1000 nM
"CCN1c2ncc(CCc3ccnc(C)c3)cc2C(=O)N(C)c2cccnc21 [2-ethyl-9-methyl-13-[2-(2-methylpyridin-4-yl)ethyl]-2,4,9,15-tetraazatricyclo[9.4.0.0^{3,8}]pentadeca-1(15),3(8),4,6,11,13-hexaen-10-one]",> 1000 nM,–
"CCN1c2ncc(CCc3ccncc3)cc2C(=O)N(C)c2cccnc21 [2-ethyl-9-methyl-13-[2-(pyridin-4-yl)ethyl]-2,4,9,15-tetraazatricyclo[9.4.0.0^{3,8}]pentadeca-1(11),3,5,7,12,14-hexaen-10-one]",> 1000 nM,IC50 [1]: 130 nM; IC50 [2]: 50 nM

Compound,IC50 [3],other results
"CCN1c2ncc(CCc3ccc4ccccc4c3)cc2C(=O)N(C)c2cccnc21 [2-ethyl-9-methyl-13-[2-(naphthalen-2-yl)ethyl]-2,4,9,15-tetraazatricyclo[9.4.0.0^{3,8}]pentadeca-1(15),3(8),4,6,11,13-hexaen-10-one]",> 1000 nM,–
"CCN1c2ncc(CCc3ccc(C)cc3)cc2C(=O)N(C)c2ccc(Cl)nc21 [5-chloro-2-ethyl-9-methyl-13-[2-(4-methylphenyl)ethyl]-2,4,9,15-tetraazatricyclo[9.4.0.0^{3,8}]pentadeca-1(15),3(8),4,6,11,13-hexaen-10-one]",> 1000 nM,–
"CCN1c2ncc(CCc3cccc(C)c3)cc2C(=O)N(C)c2ccc(Cl)nc21 [5-chloro-2-ethyl-9-methyl-13-[2-(3-methylphenyl)ethyl]-2,4,9,15-tetraazatricyclo[9.4.0.0^{3,8}]pentadeca-1(15),3(8),4,6,11,13-hexaen-10-one]",> 1000 nM,–
"CCN1c2ncc(N)cc2C(=O)N(C)c2cccnc21 [13-amino-2-ethyl-9-methyl-2,4,9,15-tetraazatricyclo[9.4.0.0^{3,8}]pentadeca-1(11),3,5,7,12,14-hexaen-10-one]",–,"IC50 ([2]; pH 7.8, 22 °C): 100 nM"
"CCN1c2ncc(CCc3cccc(C)c3)cc2C(=O)N(C)c2cccnc21 [2-ethyl-9-methyl-13-[2-(3-methylphenyl)ethyl]-2,4,9,15-tetraazatricyclo[9.4.0.0^{3,8}]pentadeca-1(11),3,5,7,12,14-hexaen-10-one]",> 1000 nM,–
"CCN1c2ncc(CCc3ccc4ccccc4c3)cc2C(=O)N(C)c2ccc(F)nc21 [2-ethyl-5-fluoro-9-methyl-13-[2-(naphthalen-2-yl)ethyl]-2,4,9,15-tetraazatricyclo[9.4.0.0^{3,8}]pentadeca-1(15),3(8),4,6,11,13-hexaen-10-one]",> 1000 nM,–
"CCN1c2ncc(CCc3ccc4ccccc4c3)cc2C(=O)N(C)c2ccc(Cl)nc21 [5-chloro-2-ethyl-9-methyl-13-[2-(naphthalen-2-yl)ethyl]-2,4,9,15-tetraazatricyclo[9.4.0.0^{3,8}]pentadeca-1(15),3(8),4,6,11,13-hexaen-10-one]",> 1000 nM,–
"CCN1c2ncc(CCc3ccccn3)cc2C(=O)N(C)c2cccnc21 [2-ethyl-9-methyl-13-[2-(pyridin-2-yl)ethyl]-2,4,9,15-tetraazatricyclo[9.4.0.0^{3,8}]pentadeca-1(11),3,5,7,12,14-hexaen-10-one]",> 1000 nM,IC50 [1]: > 1000 nM
"CCN1c2ncc(CCc3nccs3)cc2C(=O)N(C)c2cccnc21 [2-ethyl-9-methyl-13-[2-(1,3-thiazol-2-yl)ethyl]-2,4,9,15-tetraazatricyclo[9.4.0.0^{3,8}]pentadeca-1(11),3,5,7,12,14-hexaen-10-one]",> 1000 nM,–
"CCN1c2ncc(CCc3ccccc3N)cc2C(=O)N(C)c2cccnc21 [13-[2-(2-aminophenyl)ethyl]-2-ethyl-9-methyl-2,4,9,15-tetraazatricyclo[9.4.0.0^{3,8}]pentadeca-1(15),3(8),4,6,11,13-hexaen-10-one]",> 1000 nM,–
"CCN1c2ncc(Cl)cc2C(=O)N(C)c2cccnc21 [13-chloro-2-ethyl-9-methyl-2,4,9,15-tetraazatricyclo[9.4.0.0^{3,8}]pentadeca-1(11),3,5,7,12,14-hexaen-10-one]",–,"IC50 ([1]; pH 7.8, 22 °C): > 1000 nM"
"CCN1c2ncc(CCc3cccc(N)c3)cc2C(=O)N(C)c2cccnc21 [13-[2-(3-aminophenyl)ethyl]-2-ethyl-9-methyl-2,4,9,15-tetraazatricyclo[9.4.0.0^{3,8}]pentadeca-1(15),3(8),4,6,11,13-hexaen-10-one]",> 1000 nM,–
"CCN1c2ncc(CCc3cccc(N=[N+]=[N-])c3)cc2C(=O)N(C)c2ccc(Cl)nc21 [13-[2-(3-azidophenyl)ethyl]-5-chloro-2-ethyl-9-methyl-2,4,9,15-tetraazatricyclo[9.4.0.0^{3,8}]pentadeca-1(15),3(8),4,6,11,13-hexaen-10-one]",> 1000 nM,–
"CCN1c2ncc(C(=O)O)cc2C(=O)N(C)c2cccnc21 [2-ethyl-9-methyl-10-oxo-2,4,9,15-tetraazatricyclo[9.4.0.0^{3,8}]pentadeca-1(11),3,5,7,12,14-hexaene-13-carboxylic acid]",–,"IC50 ([2]; pH 7.8, 22 °C): > 1000 nM"
"CCN1c2ncc(/C=C/C(=O)OC)cc2C(=O)N(C)c2cccnc21 [methyl (2E)-3-{2-ethyl-9-methyl-10-oxo-2,4,9,15-tetraazatricyclo[9.4.0.0^{3,8}]pentadeca-1(11),3,5,7,12,14-hexaen-13-yl}prop-2-enoate]",–,"IC50 ([2]; pH 7.8, 22 °C): > 1000 nM"
"CCN1c2ncc(CCc3ccc(N)cc3)cc2C(=O)N(C)c2ccc(Cl)nc21 [13-[2-(4-aminophenyl)ethyl]-5-chloro-2-ethyl-9-methyl-2,4,9,15-tetraazatricyclo[9.4.0.0^{3,8}]pentadeca-1(15),3(8),4,6,11,13-hexaen-10-one]",> 1000 nM,–

# From BindingDB's records for doi:10.1021/jm9707028 (Boehringer Ingelheim Pharmaceuticals, 1998)
